In patent publication US6753024B2, “Method for making a food preservative and for preserving food” (The United States of America as represented by the …, priority 2002, dated 2004):

Tested on: Micrococcus luteus ATCC 10240
Test: Inhibition of test bacteria by nisin produced in fermented poi
Assay type: cell-based
Settings: nisin produced by Lactococcus lactis subspecies lactis ATCC 11454 in taro; test bacteria known to cause food spoilage
Source text: The nisin inhibits a test bacteria, Micrococcus luteus ATCC 10240, known to cause food spoilage. Thus, the Lactococcus lactis subspecies lactis ATCC 11454 grows in the taro and produces a bacteriocin therein.

nisin
inhibition of test bacteria: inhibits
